Reference: publication PMC4639751, “Development of 1-N-^11C-Methyl-L- and -D-Tryptophan for pharmacokinetic imaging of the immune checkpoint inhibitor 1-Methyl-Tryptophan” (Scientific Reports, 2015)

Columns and labels:
[1] = PET, rats, 60 min after injection
Protocol: Emission scans were acquired in three-dimensional list mode with an energy window of 350–650 keV under isoflurane anesthesia, from 0 to 60 min after radioprobe administration. All list-mode acquisition data were sorted into three-dimensional sinograms, which were then Fourier-rebinned into two-dimensional sonograms (frames × min: 4 × 1, 8 × 2, 8 × 5), and corrections for scanner dead time, randoms, and decay of the injected radioprobe. Dynamic images were reconstructed with filtered back-projection using a Hanning filter and a Nyquist cut-off of 0.5 cycles/pixel. Immediately after completion of PET scans, contrast-enhanced CT scans were performed in the rats by using the small-animal CT system (R_mCT2; Rigaku, Tokyo) after injection of 1 mL of non-ionic contrast medium (Iopamiron 370, Bayer, Osaka). The scan conditions included radiation parameters of 200 μA and 90 kV, FOV of 60 mm, and acquisition time of 34 s. CT images were collected, reconstructed, and observed using I-View-R software (Rigaku, The Woodlands, TX). Averaged CT attenuation images and dynamic PET images were reconstructed and fused using the Siemens Inveon Research Workplace (IRW) 4.0 software.
Regions of interest (ROI) in major organs and tissues were drawn in the PET/CT fusion images by manual outlining the organs and tissues in the CT images throughout the image slices by using IRW 4.0 software. The average radioactivity concentration was obtained from mean pixel values in the ROI volume. Regional uptake of radioactivity was decay-corrected to the injection time and expressed as the standardized uptake value (SUV), normalized for injected radioactivity and body weight. SUV was calculated as SUV = (radioactivity per cubic centimeter tissue/injected radioactivity) × body weight in grams. TACs of the radioprobes in individual organ and tissue were determined. Values of area under time-activity curves (AUC2–60 min, SUV × min) were calculated from 2 to 60 min post-injection to minimize the early perfusion effects.

[2] = Ex vivo biodistribution studies; details: SD rats, mean ± SEM, n = 4
Text: Major organs and tissues (blood, heart, lung, liver, pancreas, spleen, kidney, intestine, muscle, and brain), were promptly excised, harvested, and weighed. Radioactivity was counted using a γ-counter and expressed as a percentage of the injected dose per gram of wet tissue (%ID/g). All radioactivity measurements were corrected for decay.

[3] = parameters: method as in PMID 17234791; details: compared with the other isomer; cited from earlier work
[4] = In vitro stability assay in rat plasma; type: in vitro ADME; details: 37 °C, 90 min incubation, HPLC analysis
Protocol: To determine the in vitro property of the two newly-developed radioprobes, we performed plasma stability studies by HPLC analysis at 37 °C for 90 min. […] More than 95% of ^11C-L-1Mtrp and ^11C-D-1Mtrp remained intact and no detectable metabolites were found at least 90 min after plasma incubation in vitro.
^11C-L-1MTrp and ^11C-D-1MTrp (70–74 MBq, 0.4−0.6 nmol) was dissolved in 2 mL of freshly isolated rat plasma and incubated at 37 °C for 90 min. After 0, 30, 60 and 90 min, an aliquot of 300 μL incubated mixture was taken, proteins in plasma were precipitated with equal volumes of 1 M HClO4 solution, followed by centrifugation at 15000 rpm for 2 min at 4 °C. The supernatant was collected and analyzed by HPLC (Capcell Pack UG80 column, 4.6 mm i.d. × 250 mm) with […] phosphate buffer/CH3CN (8.5/1.5, v/v) at a flow rate of 1 mL/min.

[5] = Ex vivo metabolite studies; type: in vivo; details: SD rats; for Ex vivo metabolite analysis, % of tailored L- and D-1MTrp entity in Brain / Ex vivo metabolite analysis, % of tailored L- and D-1MTrp entity in Pancreas / Ex vivo metabolite analysis, % of tailored L- and D-1MTrp entity in Plasma: HPLC, mean ± SEM, n = 4
Protocol: To validate the derivation of radioactivity into the relevant organs and tissues, we assessed the metabolites of both radiolabelled isomers in the blood, brain, and pancreas of rats. […] Few radioactive metabolites were detected in these three tissues at 15 and 60 min after ^11C-L-1MTrp and ^11C-D-1MTrp injection.
SD rats were injected with ^11C-L-1MTrp or ^11C-D-1MTrp (70–74 MBq, 0.4–0.6 nmol) via a lateral tail vein. The animals were sacrificed by cervical dislocation at 15 and 60 min after the injection. Blood was collected and centrifuged at 15000 rpm for 2 min at 4 °C to separate the plasma. Brain and pancreas were rapidly removed, then homogenized in equal volumes of 1 M HClO4 solution with a Silent Crusher S homogenizer (Heidolph Instruments). Plasma and homogenates of brain and pancreas from rats were deproteinized and then analyzed by HPLC as described in the stability assay in vitro.

Cn1cc(C[C@@H](N)C(=O)O)c2ccccc21 [D-1MTrp, 1-Methyl-D-tryptophan, reference compound]
SUV in the kidney ([1]; mean ± SEM, four rats): 1.79
Biodistribution, radioactivity in Kidney ([2]; 60 min after injection): 1.16 %ID/g tissue
Antitumor activity in in vivo studies [3]: superior antitumor activity

[11CH3]n1cc(C[C@H](N)C(=O)O)c2ccccc21 [^11C-L-1MTrp, 1-N-^11C-methyl-L-tryptophan]
Fraction remaining intact in rat plasma [4]: More than 95%
SUV in the kidney ([1]; mean ± SEM, four rats): 0.94 ± 0.03
SUV in the pancreas ([1]; mean ± SEM, four rats): 2.28 ± 0.28
SUV in the liver, spleen, heart, blood, muscle, lung, brain and intestine ([1]; span over these organs): 0.43 ~ 0.70
Biodistribution, radioactivity in Blood ([2]; 1 min after injection): 1.34 ± 0.03 %ID/g tissue
Biodistribution, radioactivity in Brain ([2]; 1 min after injection): 0.14 ± 0.00 %ID/g tissue
Biodistribution, radioactivity in Heart ([2]; 1 min after injection): 1.13 ± 0.01 %ID/g tissue
Biodistribution, radioactivity in Intestine ([2]; 1 min after injection): 1.27 ± 0.05 %ID/g tissue
Biodistribution, radioactivity in Kidney ([2]; 1 min after injection): 2.60 ± 0.02 %ID/g tissue
Biodistribution, radioactivity in Liver ([2]; 1 min after injection): 1.51 ± 0.03 %ID/g tissue
Biodistribution, radioactivity in Lung ([2]; 1 min after injection): 0.98 ± 0.02 %ID/g tissue
Biodistribution, radioactivity in Muscle ([2]; 1 min after injection): 0.18 ± 0.02 %ID/g tissue
Biodistribution, radioactivity in Pancreas ([2]; 1 min after injection): 2.95 ± 0.23 %ID/g tissue
Biodistribution, radioactivity in Spleen ([2]; 1 min after injection): 0.98 ± 0.05 %ID/g tissue
Biodistribution, radioactivity in Blood ([2]; 5 min after injection): 0.65 ± 0.01 %ID/g tissue
Biodistribution, radioactivity in Brain ([2]; 5 min after injection): 0.20 ± 0.01 %ID/g tissue
Biodistribution, radioactivity in Heart ([2]; 5 min after injection): 0.64 ± 0.01 %ID/g tissue
Biodistribution, radioactivity in Intestine ([2]; 5 min after injection): 0.68 ± 0.01 %ID/g tissue
Biodistribution, radioactivity in Kidney ([2]; 5 min after injection): 1.64 ± 0.03 %ID/g tissue
Biodistribution, radioactivity in Liver ([2]; 5 min after injection): 0.73 ± 0.01 %ID/g tissue
Biodistribution, radioactivity in Lung ([2]; 5 min after injection): 0.62 ± 0.01 %ID/g tissue
Biodistribution, radioactivity in Muscle ([2]; 5 min after injection): 0.46 ± 0.01 %ID/g tissue
Biodistribution, radioactivity in Spleen ([2]; 5 min after injection): 0.61 ± 0.00 %ID/g tissue
Biodistribution, radioactivity in Blood ([2]; 15 min after injection): 0.54 ± 0.02 %ID/g tissue
Biodistribution, radioactivity in Brain ([2]; 15 min after injection): 0.27 ± 0.02 %ID/g tissue
Biodistribution, radioactivity in Heart ([2]; 15 min after injection): 0.54 ± 0.02 %ID/g tissue
Biodistribution, radioactivity in Intestine ([2]; 15 min after injection): 0.53 ± 0.02 %ID/g tissue
Biodistribution, radioactivity in Kidney ([2]; 15 min after injection): 1.11 ± 0.06 %ID/g tissue
Biodistribution, radioactivity in Liver ([2]; 15 min after injection): 0.61 ± 0.03 %ID/g tissue
Biodistribution, radioactivity in Lung ([2]; 15 min after injection): 0.50 ± 0.02 %ID/g tissue
Biodistribution, radioactivity in Muscle ([2]; 15 min after injection): 0.46 ± 0.02 %ID/g tissue
Biodistribution, radioactivity in Pancreas ([2]; 15 min after injection): 2.65 ± 0.16 %ID/g tissue
Biodistribution, radioactivity in Spleen ([2]; 15 min after injection): 0.55 ± 0.02 %ID/g tissue
Biodistribution, radioactivity in Blood ([2]; 30 min after injection): 0.50 ± 0.01 %ID/g tissue
Biodistribution, radioactivity in Brain ([2]; 30 min after injection): 0.30 ± 0.02 %ID/g tissue
Biodistribution, radioactivity in Heart ([2]; 30 min after injection): 0.49 ± 0.01 %ID/g tissue
Biodistribution, radioactivity in Intestine ([2]; 30 min after injection): 0.51 ± 0.00 %ID/g tissue
Biodistribution, radioactivity in Kidney ([2]; 30 min after injection): 0.86 ± 0.03 %ID/g tissue
Biodistribution, radioactivity in Liver ([2]; 30 min after injection): 0.55 ± 0.01 %ID/g tissue
Biodistribution, radioactivity in Lung ([2]; 30 min after injection): 0.45 ± 0.01 %ID/g tissue
Biodistribution, radioactivity in Muscle ([2]; 30 min after injection): 0.45 ± 0.01 %ID/g tissue
Biodistribution, radioactivity in Pancreas ([2]; 30 min after injection): 2.70 ± 0.17 %ID/g tissue
Biodistribution, radioactivity in Spleen ([2]; 30 min after injection): 0.51 ± 0.01 %ID/g tissue
Biodistribution, radioactivity in Blood ([2]; 60 min after injection): 0.50 ± 0.02 %ID/g tissue
Biodistribution, radioactivity in Brain ([2]; 60 min after injection): 0.31 ± 0.01 %ID/g tissue
Biodistribution, radioactivity in Heart ([2]; 60 min after injection): 0.47 ± 0.02 %ID/g tissue
Biodistribution, radioactivity in Intestine ([2]; 60 min after injection): 0.46 ± 0.02 %ID/g tissue
Biodistribution, radioactivity in Kidney ([2]; 60 min after injection): 0.74 ± 0.04 %ID/g tissue
Biodistribution, radioactivity in Liver ([2]; 60 min after injection): 0.54 ± 0.02 %ID/g tissue
Biodistribution, radioactivity in Lung ([2]; 60 min after injection): 0.43 ± 0.02 %ID/g tissue
Biodistribution, radioactivity in Muscle ([2]; 60 min after injection): 0.45 ± 0.02 %ID/g tissue
Biodistribution, radioactivity in Pancreas ([2]; 60 min after injection): 2.27 ± 0.05 %ID/g tissue
Biodistribution, radioactivity in Spleen ([2]; 60 min after injection): 0.48 ± 0.01 %ID/g tissue
Radioactivity in the brain, pancreas, and blood associated with L- and D-1MTrp ([5]; 15 and 60 min after injection): more than 94%
Ex vivo metabolite analysis, % of tailored L- and D-1MTrp entity in Brain ([5]; 15 min after injection): 98.38 ± 0.34%
Ex vivo metabolite analysis, % of tailored L- and D-1MTrp entity in Pancreas ([5]; 15 min after injection): 94.73 ± 1.64%
Ex vivo metabolite analysis, % of tailored L- and D-1MTrp entity in Plasma ([5]; 15 min after injection): 97.67 ± 0.18%
Ex vivo metabolite analysis, % of tailored L- and D-1MTrp entity in Brain ([5]; 60 min after injection): 98.93 ± 0.51%
Ex vivo metabolite analysis, % of tailored L- and D-1MTrp entity in Pancreas ([5]; 60 min after injection): 95.88 ± 0.64%
Ex vivo metabolite analysis, % of tailored L- and D-1MTrp entity in Plasma ([5]; 60 min after injection): 98.44 ± 0.13%
